The values below come from patent US20180072738A1, “SOLVATED FORMS OF A BRUTON'S TYROSINE KINASE INHIBITOR” (Pharmacyclics LLC, priority 2015, published 2018).

Usually pEC50 stands for −log10 of the EC50, conventionally taken in molar units.

pEC50: −log10 of the molar value. Where two headings read alike, the source gives them in different places.

Data set [1] in a line: Storage stability of the crystalline form at 40° C./75% RH (XRPD). In kind it is physicochemical. The note with it: for crystalline form after storage: storage at 40° C. and 75% RH, duration not stated. Here is the method: X-Ray powder diffraction patterns were collected on a Bruker AXS C2 GADDS or Bruker AXS D8 diffractometer.
X-Ray Powder Diffraction patterns were collected on a Bruker AXS C2 GADDS diffractometer using Cu Ka radiation (40 kV, 40 mA), automated XYZ stage, laser video microscope for auto-sample positioning and a Hi Star 2-dimensional area detector. X-ray optics consists of a single Gobel multilayer mirror coupled with a pinhole collimator of 0.3 mm. A weekly performance check is carried out using a certified standard NIST 1976 Corundum (flat plate). The beam divergence, i.e. the effective size of the X-ray beam on the sample, was approximately 4 mm. A θ-θ continuous scan mode was employed with a sample-detector distance of 20 cm which gives an effective 2θ range of 3.2°-29.7°. Typically the sample would be exposed to the X-ray beam for 120 seconds. The software used for data collection was GADDS for XP/2000 4.1.43 and the data were analysed and presented using Diffrac Plus EVA v15.0.0.0.
X-Ray Powder Diffraction patterns were collected on a Bruker D8 diffractometer using Cu Ka radiation (40 kV, 40 mA), θ-2θ goniometer, and divergence of V4 and receiving slits, a Ge monochromator and a Lynxeye detector. The instrument is performance checked using a certified Corundum standard (NIST 1976). The software used for data collection was Diffrac Plus XRD Commander v2.6.1 and the data were analysed and presented using Diffrac Plus EVA v15.0.0.0. Samples were run under ambient conditions as flat plate specimens using powder as received. The sample was gently packed into a cavity cut into polished, zero-background (510) silicon wafer. The sample was rotated in its own plane during analysis. The details of the data collection are: • Angular range: 2 to 42° 2θ • Step size: 0.05° 2θ • Collection time: 0.5 s/step

Data set [2] has as its system OCILy10. As to the kind of experiment: Induction of apoptosis in OCI-Ly10 (caspase activation, Annexin-V flow cytometry, sub-G0 fraction). In kind it is cell-based. As to conditions: increase in sub-G0 fraction. On the technique in general: A flow cytometer gives signals particle by particle.
Data set [3] relates to OCI-Ly10. Description: Growth inhibition of OCI-Ly10 (ABC-DLBCL) cells. In kind it is cell-based. The note with it: Homo sapiens.

Turning to `C=CC(=O)N1CCC[C@@H](n2nc(-c3ccc(Oc4ccccc4)cc3)c3c(N)ncnc32)C1` [listing 1 of 3 here], the “crystalline form after storage” value in data set [1] (listed as 1,1,2-trichloroethane solvate of Compound 1) is recorded as “changes to a Form A”. In the case of `C=CC(=O)N1CCC[C@@H](n2nc(-c3ccc(Oc4ccccc4)cc3)c3c(N)ncnc32)C1` [listing 2 of 3 here], in data set [1] (one week storage at 40° C./75% RH, XRPD), the Crystallinity after storage result was “unaffected”. As to `C=CC(=O)N1CCC[C@@H](n2nc(-c3ccc(Oc4ccccc4)cc3)c3c(N)ncnc32)C1` [listing 3 of 3 here], the “crystalline form after storage” value in data set [1] (listed as benzyl acetate solvate of Compound 1) is “does not change”. Consider `C=CC(=O)N1CCC[C@@H](n2nc(-c3ccc(Oc4ccccc4)cc3)c3c(N)ncnc32)C1` [Compound 1, 1-((R)-3-(4-amino-3-(4-phenoxyphenyl)-1H-pyrazolo[3,4-d]pyrimidin-1-yl)piperidin-1-yl)prop-2-en-1-one], for which the induction of apoptosis entry in data set [2] is given as “observed”. The negative logarithm of the EC50 (pEC50) is 7.30 in data set [3] (OCI-Ly10, 1 hour pulse, read-out: EC50 1 hour pulse (growth of OCI-Ly10)) and 8.00 in data set [3] (OCI-Ly10, continuous exposure, read-out: EC50 continuous exposure (growth of OCI-Ly10)).
